Assay results: patent US10021877B2, “Substituted 5-hydroxy-2,3-diphenylpentanonitrile derivatives, processes for their preparation and their use as herbicides and/or plant growth regulators” (BAYER CROPSCIENCE AKTIENGESELLSCHAFT, priority 2013, dated 2018)

Tested on: PHBPU=Pharbitis purpurea
Assay: Biological tests (herbicidal action) against PHBPU
Type: in vivo
Conditions: application rate 320 g/ha
Text: Seeds of monocotyledonous and dicotyledonous weed plants and crop plants were placed in wood-fibre pots in sandy loam and covered with soil. The compounds (I) according to the invention, formulated in the form of wettable powders (WP), were then applied as aqueous suspension or emulsion at a water application rate of 600 l/ha (converted) with the addition of 0.2% of wetting agent to the surface of the covering soil.
After the treatment, the pots were placed in a greenhouse and kept under good growth conditions for the test plants. After about 3 weeks, the effect was scored visually in comparison with untreated controls as percentages. For example, 100% activity=the plants have died, 50% herbicidal activity or damage=the plants have been reduced by 50% or the plant mass has been reduced by 50%, 0% activity=like control plants.
Seeds of monocotyledonous and dicotyledonous weeds and crop plants were placed in sandy loam in wood-fibre pots, covered with soil and cultivated in a greenhouse under good growth conditions. […]
What was determined was the respective herbicidal activity, in each case at the same point in time after application of the formulation in question. i.e. the damage to the respective harmful plant in %.

| SMILES | herbicidal activity against PHBPU [%] |
| --- | --- |
| N#C[C@@H](c1cccc(F)c1)[C@@H](CCO)c1ccc(Cl)cc1 [threo-1-Iba354] | 80 |
| CC(=O)OCCC(c1cc(F)ccc1F)C(C#N)c1ccc(F)c(Br)c1 (mixture of isomers) [Ibb52] | 100 |
